This is an account of results in patent US10845371B2, “Soluble MANF in pancreatic beta-cell disorders” (University of Massachusetts, priority 2012, dated 2020).

The subject of assay [1] is MEROS-GFP (ER redox state) in INS-1 832/13 cells. Nature of the assay: MEROS-GFP ratio by flow cytometry in INS-1 832/13 cells. It is filed as cell-based, rat. The settings on record: normalized to untreated; DTT 0.2-10 mM; 1 mM H2O2 30 min; TM 5 μM, TG 10 nM 24 h or 1 μM 4 h, BreA 100 ng/mL, MG132, palmitate 0.2-0.5 mM, hIAPP 10 μM, 24 h; FIGS. 17-24. As for the experimental part:
FIG. 15 is fluorescence-assisted cell sorting (FACS) data of INS-1 832/13 cells stably-transfected with MEROS-GFP following no treatment or treatment with DTT (0.2, 0.5, or 10 mM DTT). The data was collected using excitation wavelengths of 488 nm and 405 nm, and an emission spectrum of 510 nm.
FIG. 16 is a histogram of FACS data of INS-1 832/13 cells stably-transfected with MEROS-GFP following no treatment or treatment with DTT (0.2 mM, 0.5 mM, or 10 mM DTT). The horizontal axis represents the MEROS-GFP ratio and the vertical axis represents the number of cells.
FIG. 17 is a graph of the median MEROS-GFP ratio in INS-1 832/13 cells stably-transfected with MEROS-GFP following no treatment or treatment with DTT (0.2, 0.5, or 10 mM DTT). The MEROS-GFP values shown are normalized to the untreated values.
FIG. 18 is two graphs showing data from FACS analysis of INS-1 832/13 cells stably-transfected with MEROS-GFP following no treatment or treatment with 1 mM H2O2 for 30 minutes. The right graph is a histogram of the MEROS-GFP ratio in INS-1 832/13 cells not treated or treated with 1 mM H202.
FIG. 19 is a graph of the median MEROS-GFP ratio calculated in INS-1 832/13 cells using FACS analysis following no treatment or treatment with tunicamycin (TM) (5 μM; 24 hours), thapsigargin (TG) (10 nM; 24 hours), TG (1 μM; 4 hours), brefeldin A (BreA) (100 ng/mL; 24 hours), or MG132 ([…]; 24 hours). […] The data are normalized to the median MEROS-GFP ratio calculated for the untreated cells.
The error bars represent ±S.D. The data are normalized to the median MEROS-GFP ratio calculated for the untreated cells.
FIG. 24 is a graph of the median MEROS-GFP ratio in INS-1 832/13 cells left untreated or treatment with human islet amyloid polypeptide (IAPP) (10 μM; 24 hours), mouse IAPP (10 μM; 24 hours), or cytokines ([…] (5 ng/mL), INFγ (100 ng/mL), and TNFα (25 ng/mL); 24 hours)). The error bars represent ±S.D. The data are normalized to the median MEROS-GFP ratio calculated for the untreated cells.
Flow cytometry was used to precisely monitor the MEROS-GFP ratio in vivo.
Experiments were performed to study the relationship between the UPR and the heterogeneity of the redox state. In these experiments, both the redox state and the activation levels of the UPR were monitored in the same cells. To achieve this, a UPR reporter gene encoding the red fluorescent protein, mCherry, driven by the human BiP promoter was constructed. […] This BiP-mCherry reporter plasmid was transfected into INS-1 832/13 cells expressing MEROS-GFP, and FACS analysis was used to monitor the MEROS-GFP ratio and the activation levels of the UPR via BiP-mCherry in the same cells (FIG. 31). The activation levels of BiP-mCherry and the MEROS-GFP ratio were monitored following the induction of ER stress. In these experiments, INS-1 832/13 cells expressing MEROS-GFP were plated onto 6-well plates, treated with each compound for indicated times, and then harvested by trypsinization. After washing with phosphate buffered saline, cells were resuspended in the 11 mM glucose-Hanks buffered salt solution. Flow cytometry analyses were performed with LSRII (BD).
On the technique in general: Flow cytometry measures light scatter and fluorescence of single cells or particles in a stream.

For assay [2] the test system is unchanged. Nature of the assay: MEROS-GFP ratio by fluorescent plate reader in INS-1 832/13 cells. It is filed as cell-based, rat. To be noted: 30 minutes; H2O2 0.1 or 1 mM, DTT 0.1-10 mM, FIG. 12. As to the method: FIG. 12 is a graph of the MEROS-GFP ratio in INS-1 832/13 cells left untreated (no label), or treated with H2O2 (1 or 0.1 mM H2O2) or DTT (0.1, 0.2, 0.5, 1, 2, 5, or 10 mM DTT). The MEROS-GFP ratio was determined using a plate reader. The data shown are mean±S.D. (n=3).
The ratio between fluorescence from excitation 473 nm versus 394 nm normalized to wild-type untreated cells is called the MEROS-GFP ratio. The MEROS-GFP ratio was determined using a fluorescent plate reader. In these experiments, the INS-1 832/13 cells were plated onto a 96-well plate at 50,000 cells/well, the cells treated with H2O2 or DTT at various concentrations for 30 minutes, and the fluorescence at excitation wavelength 473 nm and emission wavelength 510 nm (for reduced MEROS-GFP) or at excitation wavelength 394 nm and emission wavelength 510 nm (for oxidized MEROS-GFP) was measured. The MEROS-GFP ratio was determined after substraction of background signal.

Assay [3] deals with INS-1 832/13 cells. Nature of the assay: Percentage of reduced cells (MEROS-GFP ratio >2) by flow cytometry after fatty acids. To be noted: 0.5 mM palmitate plus 0.5 mM oleic or linoleic acid, 24 hours, FIG. 30. It is filed as cell-based, rat. An excerpt:
The y-axis represents fluorescence following excitation using 488 nm and the x-axis represents fluorescence following excitation using 405 nm.
The data for cells treated with palmitate is shifted to the right.
The error bars indicate ±standard deviation (**p<0.01).

For assay [4], the system named is MANF. Kind of assay: MANF protein (immunoblot) and mRNA (real-time PCR) in INS-1 832/13 cells treated with ER stress inducers. It is filed as cell-based, rat. The settings on record: 24 hours; for MANF mRNA levels: 5 μM tunicamycin or 20 nM thapsigargin, FIG. 2. As for the experimental part:
FIG. 1 is an immunoblot showing the levels of MANF protein in concentrated medium from a culture of a rat pancreatic β-cell line (INS-1 832/13) or in lysate from the rat pancreatic β-cell line (INS-1 832/13) after no treatment or treatment with thapsigargin (50 nM) or tunicamycin (0.5 μg/mL) for 24 hours.
FIG. 2 is a graph showing the relative expression of MANF mRNA in a rat pancreatic β-cell line (INS-1 832/13) cultured under the following conditions: 11 mM glucose (24 hours); 25 mM glucose (24 hours); 25 mM glucose (48 hours); 25 mM glucose (72 hours); 11 mM glucose and 5 μM tunicamycin (TM) (24 hours); or 11 mM glucose and 20 nM thapsigargin (Tg) (24 hours). The data shown were generated using quantitative real-time PCR (n=3, S.D.).
(§1) Experiments were performed to determine if expression of soluble MANF is induced in pancreatic β-cells in response to endoplasmic reticulum stress. These experiments were performed using rodent pancreatic β-cell lines (INS-1 832/13 and MIN6), primary mouse and human islets, and two different chemical agents that induce endoplasmic reticulum stress (thapsigargin and tunicamycin). INS-1 832/13 cells were cultured in RPMI-1640 containing 10% fetal bovine serum, penicillin, streptomycin, sodium pyruvate, and 0.1% β-mercaptoethanol. Primary islets were obtained from Prodo, and plated into 6-well plates precoated with laminin V produced by 804G cells, and cultured in CMRL medium supplemented with fetal bovine serum, non-essential amino acids, sodium pyruvate, and antibiotics.
In general terms: Immunoblotting shows a protein as a band on a membrane.

Assay [5] has as its system MANF. Nature of the assay: MANF mRNA and soluble MANF protein in human primary islets treated with thapsigargin. It is filed as cell-based. The settings on record: thapsigargin 0.25 μM, 24 hours. As to the method:
The data shown were generated using quantitative real-time PCR (n=3; S.D.).
In this experiment, human MANF was immunoprecipitated using a rabbit anti-human MANF antibody (Proteintech), and the same antibody was used to develop the immunoblot.
as §1
(§2) A second set of experiments were performed using human primary islets from two human donors.

In assay [6] the test system is MANF. Nature of the assay: MANF mRNA in mouse primary islets treated with thapsigargin (real-time PCR). It is filed as cell-based. The settings on record: 0.5 μM thapsigargin, 6 hours, FIG. 3. As for the experimental part: FIG. 3 is a graph showing the relative expression of MANF, WFS1, TXNIP, and CHOP mRNA in mouse primary islets cultured five days with 5 mM glucose (LG), 11 mM glucose (MG), or 25 mM glucose (HG), or five days with 5 mM glucose (LG) and 6 hours with 0.5 μM thapsigargin (TG). The data shown were generated using quantitative real-time PCR (n=3; S.D.).
as §1, §2
In general terms: Real-time PCR tracks product formation cycle by cycle.

Ends that are not written are not given here. Peptide text beside a SMILES is read from it. * marks the point of attachment. Cbz = O=C(OCc1ccccc1)*

With `OO` [H2O2], the “Median MEROS-GFP ratio (FACS)” value in assay [1] is given as “did not change the MEROS-GFP ratio”. Moreover, the “MEROS-GFP ratio (plate reader)” value in assay [2] is recorded as “did not change the MEROS-GFP ratio”.
For the compound `CC(C)C[C@@H](C=O)NC(=O)[C@H](CC(C)C)NC(=O)[C@H](CC(C)C)NC(=O)OCc1ccccc1` [MG 132] (Cbz-Leu-Leu-Leu-aldehyde), the “Median MEROS-GFP ratio (FACS)” value in assay [1] is given as “increased”.
The same measure, in the same setting: under `C[C@H]1CCC/C=C/[C@@H]2C[C@H](O)C[C@H]2[C@H](O)/C=C/C(=O)O1` [brefeldin A] stands “increased”.
In the case of `CCCCC/C=C\C/C=C\CCCCCCCC(=O)O` [linoleic acid], the “Palmitate-induced reduced ER (percentage of reduced cells)” value in assay [3] is recorded as “significantly suppressed the ability of palmitate to create a reduced ER”.
`CCCCCCCC/C=C\CCCCCCCC(=O)O` [oleic acid]: the “Palmitate-induced reduced ER (percentage of reduced cells)” value in assay [3] is listed as “significantly suppressed the ability of palmitate to create a reduced ER”.
Turning to `C/C=C(/C)C(=O)O[C@H]1C(C)=C2[C@H]([C@@H]1OC(=O)CCCCCCC)[C@@](C)(OC(C)=O)C[C@H](OC(=O)CCC)[C@@]1(O)[C@H]2OC(=O)[C@@]1(C)O` [thapsigargin], the “MANF mRNA levels” value in assay [4] is given as “Elevated levels of MANF mRNA”. Also, the “Soluble MANF protein in the medium” value in assay [4] (thapsigargin 50 nM, FIG. 1) was “detected in the medium”. In addition, the “Soluble MANF protein in the extracellular medium” value in assay [5] (FIGS. 5 and 6) was “production and release of soluble MANF protein into the extracellular medium”. Also, the “MANF mRNA expression” value in assay [5] (two donors, FIG. 4) is reported as “significant increase in MANF mRNA expression”; in assay [6] it was “significant increase in MANF mRNA expression”. Also, the “Median MEROS-GFP ratio (FACS)” value in assay [1] is “increased”.
With “human islet amyloid polypeptide (hIAPP): human islet amyloid polypeptide, physiological inducer of ER stress (KCNTATCATQRLANFLVHSSNNFGAILSSTNVGSNTY; not fully specified (C-terminus, bridges); cysteine pairing not given here; UniProt P10997 34-70, looked up)”, the “Median MEROS-GFP ratio (FACS)” value in assay [1] was “increased”.
With tunicamycin, the “MANF mRNA levels” value in assay [4] was “Elevated levels of MANF mRNA”. The “Median MEROS-GFP ratio (FACS)” value in assay [1] was “increased”.
